Laboratory results as given in US6838481B1, “Skin whitener” (LG Household & Health Care Ltd., priority 1998, dated 2005).

Key:
[1] = test system: B-16 mouse melanoma cells; test: Melanin formation inhibiting effects of EL-1 at the cellular level; format: cell-based; conditions: for Melanin formation amount: cultured 3 days, repetition number = 3; for Inhibition ratio (%): melanin formation relative to control; for Cell toxicity: final conc. 10 μg/ml
Procedure: The whitening effect was tested at the cellular level by adding EL-1 obtained from the above EXAMPLES 1 to 7 to a cultured solution of B-16 mouse melanoma cells (Lotan R., Lotan D. Cancer Res. 40:3345-3350, 1980) as follows.
The EL-1 obtained in EXAMPLES 1 to 7 was added to a culture solution of B-16 mouse melanoma cells so that the final concentrations become 1 μg/ml, 5 μg/ml and 50 μg/ml respectively, and they were cultured for 3 days. After trypsin was added to the cells and the solution was removed from the culture container and centrifuged, melanin was extracted. 1 ml of sodium hydroxide solution (1 N concentration) was added to the extracted melanin and boiled for about 10 minutes to dissolve the melanin. The test was carried out in a way whereby the formed melanin amount was represented in absorbance per unit cell number, expressed as A400/10^6 cells by measuring the absorbance at 400 nm. After repeating this test 3 times, the melanin formation amount relative to the control was calculated as an inhibition ratio (%) using the average values.

[2] = test system: B-16 mouse melanoma cells; test: as above; format: cell-based; conditions: concentration of 50 μg/ml

| Compound | Melanin formation amount ([1]; final conc. 1 μg/ml) | Inhibition ratio (%) ([1]; final conc. 1 μg/ml) | Cell toxicity [1] | Cell toxicity ([1]; listed as hydroquinone) | Cell toxicity [2] | Melanin formation amount ([1]; final conc. 5 μg/ml) | Inhibition ratio (%) ([1]; final conc. 5 μg/ml) | Melanin formation amount ([1]; final conc. 50 μg/ml) | Inhibition ratio (%) ([1]; final conc. 50 μg/ml) | Melanin synthesis inhibiting effect ([1]; mouse B-16 melanoma cells treated) |
| --- | --- | --- | --- | --- | --- | --- | --- | --- | --- | --- |
| Oc1ccc(O)cc1 [Hydroquinone, reference compound] | 0.025 ± 0.002 A400/10^6 cells | 43% | Cell extinction | high cell toxicity | – | – | – | – | – | – |
| C=C1CCC2C(/C=C(\C)C(=O)C3(OC(C)=O)CC(C)C(OC(=O)c4ccccc4)C3C1OC(C)=O)C2(C)C (stereo not drawn) [EL-1, 5,15-diacetyl-3-benzoyllathyrol] | 0.032 ± 0.001 A400/10^6 cells | 28% | – | – | does not show cell toxicity | 0.019 ± 0.003 A400/10^6 cells | 57% | 0.007 ± 0.001 A400/10^6 cells | 85% | very strong melanin synthesis inhibiting effect |
